The molecules below were run against T1, human recombinant Yes [a.a. 2–543 (end)] (Homo sapiens, UniProt P07947) (assay: ADP-Glo kinase assay, inhibition rates of Yes phosphorylation activity (first and second screening)). Settings: first screening; mean of n = 4 wells; 10 μmol L−1 compound.
T1 construct: human recombinant Yes [a.a; 2–543 (end)]; purchased BPS Bioscience 40488
Format: biochemical
In short: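 Hits from a first pass were rescreened after re-dissolution from fresh powder. The first pass reported the mean inhibition rate of quadruplicate wells per compound. Activity was that of recombinant human Yes [a.a. 2–543] kinase, read out with the ADP-Glo ADP-detection method.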

T1 sequence (P07947 2-543): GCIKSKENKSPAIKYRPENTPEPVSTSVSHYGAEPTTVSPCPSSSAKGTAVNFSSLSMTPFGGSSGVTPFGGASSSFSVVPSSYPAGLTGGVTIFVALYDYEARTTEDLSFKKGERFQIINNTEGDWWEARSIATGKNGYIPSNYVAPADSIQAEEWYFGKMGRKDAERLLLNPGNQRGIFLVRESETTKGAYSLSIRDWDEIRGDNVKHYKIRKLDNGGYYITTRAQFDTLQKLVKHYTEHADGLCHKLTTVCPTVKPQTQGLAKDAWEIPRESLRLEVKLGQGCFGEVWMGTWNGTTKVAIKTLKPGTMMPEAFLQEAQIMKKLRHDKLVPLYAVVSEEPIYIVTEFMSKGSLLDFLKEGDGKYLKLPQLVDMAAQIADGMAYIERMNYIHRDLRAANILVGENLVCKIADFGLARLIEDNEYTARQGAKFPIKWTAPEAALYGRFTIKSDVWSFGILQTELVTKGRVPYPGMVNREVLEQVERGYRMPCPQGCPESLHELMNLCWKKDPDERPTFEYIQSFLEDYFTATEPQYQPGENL

Structure (SMILES)	First screening IR (inhibition rate) [%]
CS(=O)(=O)c1ccc(N2CCCC2)c(S(C)(=O)=O)c1 [Compound Z168801896]	13
COc1cc(C)c(Sc2cnc(NC(=O)c3ccc(CCl)cc3)s2)cc1C(=O)N1CCN(C(C)=O)CC1 [Compound Z168829182]	64
CN(C)c1nc(N)nc(COc2ccc3cc(Br)ccc3c2)n1 [Compound Z168931562]	5
COc1ccc2ccc(OCc3nc(N)nc(N(C)C)n3)cc2c1 [Compound Z168975100]	6
CC(C)=CC1C(C(=O)Nc2c(C)cc(C)cc2C)C1(C)C (stereo not drawn) [Compound Z169558548]	2
Cc1cc(C(=O)CCC(=O)Nc2nc3c(s2)CN(C)CC3)c(C)s1 [Compound Z169940730]	5
O=C1CCCCCN1CCCNC(=O)N1CCN(S(=O)(=O)c2c(Cl)cccc2Cl)CC1 [Compound Z183473124]	-3
O=C(Nc1nc2ccccc2[nH]1)c1cc(-c2ccccc2)n[nH]1 [Compound Z184538526]	3
O=C(NCC1COc2ccccc2O1)c1cccc(OCc2cn3ccccc3n2)c1 (stereo not drawn) [Compound Z185334464]	-12
Cn1ccnc1C(Nc1cnn(Cc2ccccc2)c(=O)c1Cl)c1ccccc1 (stereo not drawn) [Compound Z185383718]	30
CCN(CCNC(=O)c1[nH]c2c(c1C)C(=O)CCC2)c1cccc(C)c1 [Compound Z188949814]	-5
CC(C)(C)C1CCC(C(=O)N2CCC(C(=O)N3CCCCCC3)CC2)CC1 (stereo not drawn) [Compound Z191288442]	7
Cc1noc(C)c1CCC(=O)Nc1nc2cc(C(F)(F)F)ccc2n1Cc1ccco1 [Compound Z193270258]	0
CN(C)c1nc(N)nc(CSc2nnc(-c3ccccc3)n2C)n1 [Compound Z193722710]	6
CCC(Sc1n[nH]c(C(C)C)n1)C(=O)Nc1ccc(F)cc1 (stereo not drawn) [Compound Z193785446]	-8
Cc1ccc(C)c(C(=O)CCC(=O)NC(C)c2nc3ccccc3[nH]2)c1 (stereo not drawn) [Compound Z195395734]	1
Cc1c(C#N)c(NC(=O)CN2CCN(CC(=O)N3CCCCC3)CC2)n(-c2cccc(F)c2)c1C [Compound Z195846234]	0
CC(C)CCn1c(CN2CCN(Cc3ccco3)CC2)nc2c1c(=O)[nH]c(=O)n2Cc1ccccc1 [Compound Z195914778]	-3
CC(C)CNC(=O)CN1CCN(c2nc(-c3ccccn3)nc3scc(-c4ccccc4)c23)CC1 [Compound Z196146788]	2
CC(=O)N1CC=C(c2ccc(Oc3nc(-c4cccnc4)nc4ccccc34)cc2)CC1 [Compound Z196157908]	-13
CN1C/C(=C/c2ccc(SC(F)(F)F)cc2)c2nc3ccccc3c(C(=O)O)c2C1 [Compound Z196352976]	-14
Cc1cn2c(/C=C/C(=O)c3ccc(OCC(=O)N(C)C)cc3)c(C)nc2s1 [Compound Z196370782]	-2
CN(C)c1nc(N)nc(CSCC(=O)Nc2cccc(Cl)c2Cl)n1 [Compound Z197452730]	4

Structure (SMILES)	First screening IR (inhibition rate) [%]
CN(C)c1nc(N)nc(CSCCOc2ccccc2F)n1 [Compound Z197453168]	9
CN(C)c1nc(N)nc(CSCCOc2ccc(F)cc2)n1 [Compound Z197453372]	-8
Cc1cc(C(=O)CSCc2nc(N)nc(N(C)C)n2)c(C)n1C1CC1 [Compound Z197454120]	4
CC(SCc1nc(N)nc(N(C)C)n1)C(=O)Nc1ccc(F)cc1F (stereo not drawn) [Compound Z197454476]	-5
CC(SCc1nc(N)nc(N(C)C)n1)C(=O)Nc1cc(F)ccc1F (stereo not drawn) [Compound Z197454478]	15
CC(SCc1nc(N)nc(N(C)C)n1)C(=O)NC1CCCCCC1 (stereo not drawn) [Compound Z197454502]	1
CC(SCc1nc(N)nc(N(C)C)n1)C(=O)Nc1ccc2c(c1)CCC2 (stereo not drawn) [Compound Z197454542]	5
COc1ccc(C)cc1C(C)NC(=O)CCc1nc2ccccc2[nH]1 (stereo not drawn) [Compound Z197873940]	60
Nc1nc(-c2ccccc2)c2cc(C(=O)c3ccccc3O)cnn12 [Compound Z199055452]	7
CN(Cc1ccc(N2CCOCC2)cc1)Cc1c(O)ccc2ccncc12 [Compound Z199499666]	-18
CS(=O)(=O)c1ccc(N2CCCCCC2)c(S(C)(=O)=O)c1 [Compound Z199538216]	51
CN(CCO)c1ccc(S(C)(=O)=O)cc1S(C)(=O)=O [Compound Z199538264]	3
CCCCN(C)c1ccc(S(C)(=O)=O)cc1S(C)(=O)=O [Compound Z199538358]	8
CCC(NC(=O)c1cc(C)nc2c1cnn2C(C)C)c1ccc(C)cc1 (stereo not drawn) [Compound Z203056244]	-5
COc1ccc(S(=O)(=O)N[C@@H](C)C(=O)N2CC=C(c3c(OC)cc(OC)cc3OC)CC2)cc1 [Compound Z203177000]	0
Cc1cc(C(=O)Nc2ccc(F)c(F)c2)c2cnn(C(C)C)c2n1 [Compound Z203269322]	39
N#Cc1ccccc1CSCCNc1cc(=O)n2ccccc2n1 [Compound Z203909940]	-8
CC(C)c1cccc(NC(=O)CN(C)CC(=O)N2c3ccccc3NC(=O)CC2C)c1 (stereo not drawn) [Compound Z203963094]	-10
O=C(c1ccc(Cl)c(S(=O)(=O)N2CCCCC2)c1)N1CCn2c1nc1ccccc12 [Compound Z204253774]	-4
O=C(Nc1cc(-c2cccc([N+](=O)[O-])c2)sc1C(=O)O)c1cc2c(s1)CCC2 [Compound Z204341220]	-3
O=C(/C=C/c1ccco1)Nc1cc(-c2cccc([N+](=O)[O-])c2)sc1C(=O)O [Compound Z204341820]	-3
O=C(/C=C/c1cccs1)Nc1cc(-c2cccc([N+](=O)[O-])c2)sc1C(=O)O [Compound Z204342158]	58
O=C(Nc1cc(-c2cccc([N+](=O)[O-])c2)sc1C(=O)O)c1ccc2c(c1)OCCO2 [Compound Z204342356]	-1

Structure (SMILES)	First screening IR (inhibition rate) [%]
O=C(Nc1cc(-c2cccc([N+](=O)[O-])c2)sc1C(=O)O)c1ccc2c(c1)CCC2 [Compound Z204342388]	-1
CC(Sc1nc2ncccn2n1)C(=O)Nc1ccc(Cl)cc1Cl (stereo not drawn) [Compound Z207321514]	5
O=c1[nH]c2ccccc2c2nc(-c3ccc(CSc4nc5ccccc5[nH]4)cc3)nn12 [Compound Z208192218]	16
Cc1cc(COC(=O)c2cc(-c3cccs3)nc3c2cnn3C(C)C)no1 [Compound Z215601214]	-2
CC(C)n1ncc2c(C(=O)Nc3ccccc3F)cc(-c3ccco3)nc21 [Compound Z216407296]	37
CC(=O)c1cccc(NC(=O)c2cc(-c3ccco3)nc3c2cnn3C(C)C)c1 [Compound Z216416610]	-1
CC(C)n1ncc2c(C(=O)Nc3ccc(F)cc3Cl)cc(-c3ccco3)nc21 [Compound Z216417110]	21
CC(C)n1ncc2c(C(=O)Nc3ccc(F)c([N+](=O)[O-])c3)cc(-c3ccco3)nc21 [Compound Z216541962]	-1
CC(C)n1ncc2cc(C(=O)Nc3ccc4[nH]c(=O)[nH]c4c3)cnc21 [Compound Z217430364]	-10
Cc1ccc(C(N)=O)c(OCc2ccc(C#N)cc2F)c1 [Compound Z217923492]	9
O=C(NCc1ccc(-c2nc3ccccc3s2)o1)c1ccco1 [Compound Z218238558]	12
COc1cc(NC(=O)COC(=O)c2cc(-c3cccs3)nc3onc(C)c23)cc(OC)c1 [Compound Z218834328]	6
Cc1ccnc(NC(=O)c2cc(-c3ccc(F)cc3)nc3onc(C)c23)c1 [Compound Z219812624]	-14
Cc1[nH]c(=O)[nH]c(=O)c1CCC(=O)N1CCC(CCc2ccccc2)CC1 [Compound Z219953062]	4
N#Cc1c(CN2CCN(S(=O)(=O)c3cc(Cl)ccc3Cl)CC2)cn2ccccc12 [Compound Z220381008]	-9
Cc1ccccc1-c1nc(SCc2cn3cc(Cl)ccc3n2)n[nH]1 [Compound Z221422064]	36
Cc1nn(C)c2nc(-c3ccccc3)cc(C(=O)Nc3ccc4c(c3)OCO4)c12 [Compound Z222976544]	-2
Cl.Fc1c(-c2ccccc2)nc2ccc(Cl)cc2c1-c1ccccc1 [Compound Z223042638]	-12
Cl.Fc1c(-c2ccccc2)nc2ccccc2c1-c1ccccc1 [Compound Z223042658]	30
CCCCN(C1CCS(=O)(=O)C1)S(=O)(=O)c1ccc(Br)cc1Cl (stereo not drawn) [Compound Z223263980]	5
COc1cc(C(=O)NCCc2ccc(-n3cccn3)cc2)ccc1C [Compound Z223337292]	3
CC1=CC(=C(C#N)c2nc3ccccc3s2)C=C(C)N1c1ccc2c(c1)OCCO2 [Compound Z223450274]	-6
Cn1ncc2c(N3CCNCC3)ncnc21 [Compound Z223639244]	-11

Same assay, conditions: second screening, dissolved from fresh powder; n = 4; 10 μmol L−1 compound

Structure (SMILES)	Second screening IR (inhibition rate) [%]
COc1cc(C)c(Sc2cnc(NC(=O)c3ccc(CCl)cc3)s2)cc1C(=O)N1CCN(C(C)=O)CC1 [Compound Z168829182]	37
CS(=O)(=O)c1ccc(N2CCCCCC2)c(S(C)(=O)=O)c1 [Compound Z199538216]	-10
O=C(/C=C/c1cccs1)Nc1cc(-c2cccc([N+](=O)[O-])c2)sc1C(=O)O [Compound Z204342158]	-7

Source: paper PMC5607274, “An iterative compound screening contest method for identifying target protein inhibitors using the tyrosine-protein kinase Yes” (Scientific Reports, 2017)
